Experimental findings from article PMC12398856, “A GLP-1 analogue optimized for cAMP-biased signaling improves weight loss in obese mice” (Molecular Metabolism, 2025) are described below.

Series [1] deals with T1, GLP-1R (Homo sapiens, UniProt P43220). In words: BRET-based cAMP production assay (CAMYEL sensor) in GLP-1R+ HEK293T cells. In kind it is cell-based. Also on record: host or cells: HEK293T (ATCC), transient transfection with Lipofectamine 2000.
Target sequence in this assay (P43220 24-463): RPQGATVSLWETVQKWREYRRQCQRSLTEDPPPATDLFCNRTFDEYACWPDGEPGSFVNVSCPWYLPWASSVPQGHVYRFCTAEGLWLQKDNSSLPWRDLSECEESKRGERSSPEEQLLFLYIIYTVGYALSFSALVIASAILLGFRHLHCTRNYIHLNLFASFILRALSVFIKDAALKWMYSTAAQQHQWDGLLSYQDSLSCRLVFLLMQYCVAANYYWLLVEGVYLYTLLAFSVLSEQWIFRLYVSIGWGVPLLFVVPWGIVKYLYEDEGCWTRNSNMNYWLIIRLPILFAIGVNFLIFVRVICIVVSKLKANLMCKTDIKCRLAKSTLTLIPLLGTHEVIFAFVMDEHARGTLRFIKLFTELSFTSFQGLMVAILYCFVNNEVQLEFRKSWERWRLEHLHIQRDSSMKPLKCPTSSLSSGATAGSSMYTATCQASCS
Method: Briefly, HEK293T cells (ATCC) were cultured in Dulbecco's Modified Eagle Medium (DMEM) supplemented with 10% heat-inactivated fetal bovine serum (FBS), 100 IU/mL of penicillin, and 100 mg/mL of streptomycin solution. […] BRET measurements were taken every 60 s using a PHERAstar FS multi-mode microplate reader. Ligand-induced dynamics in GLP-1R signaling or trafficking were measured as subsequent changes relative to baseline (after time point zero). Each experiment was independently performed at least three times, with at least three technical replicates for each group. Positive or negative incremental areas under the curve (iAUC) were calculated and represented for dose–response relationships.
The target of series [2] is T1, GLP-1R. The series can be described thus: CRE-Luciferase reporter assay (cAMP production) in BHK cells expressing GLP-1R. In kind it is cell-based. The conditions noted are these: read-out: Log(data) cAMP EC50 (converted).
Target sequence in this assay (P43220 24-463, species assumed): as the sequence (P43220 24-463) above
Method: Briefly, stably transfected baby hamster kidney (BHK) cell lines expressing GLP-1R and firefly luciferase reporter gene linked to the cAMP response element (CRE) were seeded in poly-D-lysine-coated 96 well opaque well tissue culture plates at 5,000 cells per well in growth media, incubated overnight, and washed once in Dulbecco's phosphase-buffered saline (DPBS). To each well was added 50 μL of assay buffer (DMEM without phenol red, 10 mM HEPES, 1 × Glutamax, 1% ovalbumin, 0.1% Pluronic F-68) containing serial dilutions of test compounds. The test plates were incubated at 37 °C for 3 h in a CO2 incubator, then washed once with 100 uL per well of DPBS followed by addition of 100 μL per well of SteadyLite plus reagent (PerkinElmer). The assay plates were covered to protect reagent from light, shaken at 250 rpm at room temperature for 30 min, and read in a microtiter plate reader. EC50 values were calculated using Prism software (GraphPad) as the nonlinear regression of log(compound concentration) vs. response.
The nature of the next series: in vivo. To be noted: mouse, sc, t1/2.
Series [3] concerns the target T1, GLP-1R. The series can be described thus: β-arrestin recruitment (Barr) at GLP-1R, Supplemental Table 1. The conditions noted are these: negative log10 of EC50; read-out: Log(data) Barr EC50 (converted). The format is cell-based.
Target sequence in this assay (P43220 24-463, species assumed): as the sequence (P43220 24-463) above

Method for in vivo: Thus, the PK profiles are an overall average of 8 mice/group and 4 mice/subgroup sampled at each time point. […] Briefly, plasma concentration–time profiles were analyzed by a non-compartmental method (Pharsight Phoenix WinNonLin v.6.4). The terminal half-life (t1/2), maximum plasma concentration (Cmax), time for maximum plasma concentration (tmax), and AUC from zero to last (AUC0-t) were determined.
Briefly, plasma proteins were precipitated by mixing plasma samples with 6 volumes of methanol-containing internal standard in micronic 1.5 mL microcentrifuge tubes, followed by centrifugation for 20 min at 13,000×g. The supernatant was transferred to a 96-well plate and diluted with water containing 0.1% formic acid and mixed thoroughly. Diluted samples were injected into the LC-MS/MS system. […] The mass spectrometric detection was performed on a Thermo Scientific TSQ Quantis triple quadrupole system with electrospray ionization in positive ion mode.

With `CC[C@H](C)[C@H](NC(=O)[C@H](Cc1ccccc1)NC(=O)[C@H](CCC(=O)O)NC(=O)[C@H](CCCNC(=N)N)NC(=O)[C@H](C)NC(=O)[C@H](C)NC(=O)[C@H](CCC(N)=O)NC(=O)[C@H](CCC(=O)O)NC(=O)[C@H](CCC(=O)O)NC(=O)[C@H](CC(C)C)NC(=O)[C@H](Cc1ccc(O)cc1)NC(=O)[C@H](CO)NC(=O)[C@H](CO)NC(=O)[C@@H](NC(=O)[C@H](CC(=O)O)NC(=O)[C@H](CO)NC(=O)[C@@H](NC(=O)[C@H](Cc1ccccc1)NC(=O)[C@@H](NC(=O)CNC(=O)[C@H](CCC(=O)O)NC(=O)[C@H](Cc1c[nH]c2ccccc12)NC(=O)CCc1c[nH]cn1)[C@@H](C)O)[C@@H](C)O)C(C)C)C(=O)N[C@@H](C)C(=O)N[C@@H](Cc1c[nH]c2ccccc12)C(=O)N[C@@H](CC(C)C)C(=O)N[C@H](C(=O)N[C@@H](CCCNC(=N)N)C(=O)NCC(=O)N[C@@H](CCCNC(=N)N)C(=O)N[C@@H](CCCCNC(=O)COCCOCCNC(=O)COCCOCCNC(=O)CC[C@H](NC(=O)CCCCCCCCCCCCCCCCC(=O)O)C(=O)O)C(=O)O)C(C)C` [NNC5840], the EC50 at GLP-1R [1] was 73.9 nM; on GLP-1R [2] it was 0.0192 nM; at GLP-1R [3], 20.1 nM. The same molecule showed a half-life in “in vivo” of 21.7 h.
